Test results: patent US7897565B2, “Compositions for HCV treatment” (priority 2004, dated 2011)
Non-standard residues stand in square brackets, D forms with d. Residues, ends and D or L forms follow the SMILES beside them. ξ: configuration not given here. ξNMeBmt = C/C=C/C[C@@H](C)[C@@H](O)C(NC)C(=O)O; NMeL = CN[C@@H](CC(C)C)C(=O)O; NMeV = CN[C@H](C(=O)O)C(C)C; NMeA = CN[C@@H](C)C(=O)O; Abu = CC[C@H](N)C(=O)O; Sar = CNCC(=O)O

Legend:
[1] = molecular target: human recombinant cyclophilin (Homo sapiens, UniProt P62937); test: competitive ELISA for binding to cyclophilin (Binding Ratio vs cyclosporin A); conditions: negative value = binding stronger than cyclosporin A
Method: A cyclosporin is considered as binding to cyclophilin if it binds to human recombinant cyclophilin at least one fifth as well as does cyclosporin A in the competitive ELISA test described by Quesniaux in Eur. J. Immunol. 1987 17:1359-1365. In this test, the cyclosporin to be tested is added during the incubation of cyclophilin with coated BSA-cyclosporin A and the concentration required to give a 50% inhibition of the control reaction without competitor is calculated (IC50). The results are expressed as the Binding Ratio (BR), which is the log to the base 10 of the ratio of the IC50 of the test compound and the IC50 in a simultaneous test of cyclosporin A itself.

Balb/c spleen cells = test: Mixed Lymphocyte Reaction (MLR), activity relative to cyclosporin A; assay type: cell-based, mice
Description: Cyclosporins which bind strongly to cyclophilin but are not immunosuppressive have been identified. A cyclosporin is considered to be non-immunosuppressive when it has an activity in the Mixed Lymphocyte Reaction (MLR) of no more than 5%, preferably no more than 2%, that of cyclosporin A. The Mixed Lymphocyte Reaction is described by T. Meo in “Immunological Methods”, L. Lefkovits and B. Peris, Eds., Academic Press, N.Y. pp. 227-239 (1979). Spleen cells (0.5×10^6) from Balb/c mice (female, 8˜10 weeks) are co-incubated for 5 days with 0.5×10^6 irradiated (2000 rads) or mitomycin C treated spleen cells from CBA mice (female, 8˜10 weeks). The irradiated allogeneic cells induce a proliferative response in the Balb/c spleen cells which can be measured by labeled precursor incorporation into the DNA. […] The IC50 found for the test compound in the MLR is compared with that found for cyclosporin A in a parallel experiment. In addition, non-immunosuppressive cyclosporins lack the capacity of inhibiting CN and the downstream NF-AT pathway.

[2] = test system: HCV replicon cells clone A; test: nine-day viral RNA reduction assay (quantitative RT-PCR); assay type: cell-based, hepatitis C virus
Method: Analysis of the effect of combination treatment, are examined using nine-day viral RNA reduction assays. HCV replicon cells clone A are treated with compounds in DMEM supplemented with 10% FBS and 0.2% DMSO for 3, 6, or 9 days, then the total intracellular RNA is extracted, and the level of HCV RNA is determined by real-time quantitative RT-PCR (Taqman) using HCV-specific primers and probe as described above. For each treatment, the quantity of HCV RNA is normalized against the amount of total RNA extracted, which is determined in a Quant-iT assay (Molecular Probe). The log reduction of HCV RNA is calculated by comparing the level of HCV RNA in compound-treated cells to that of untreated cells.

[3] = test system: HCV replicon cells clone A; assay type: cell-based, hepatitis C virus; conditions: 1 mg/ml G418
Method: HCV replicon cells clone A are treated with various concentrations of NIM811 and BILN2061 either alone or in combination in the presence of 1 mg/ml G418.

Sequence of human recombinant cyclophilin (P62937 whole entry): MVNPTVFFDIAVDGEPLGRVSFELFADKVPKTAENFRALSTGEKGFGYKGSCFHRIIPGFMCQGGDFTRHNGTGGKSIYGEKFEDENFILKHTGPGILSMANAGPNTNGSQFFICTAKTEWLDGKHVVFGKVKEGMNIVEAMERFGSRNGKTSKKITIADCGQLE

Molecule | BR (Binding Ratio): log to the base 10 of the ratio of the IC50 of the test compound and the IC50 of cyclosporin A [1] | IR (Immunosuppressive Ratio), percentage of the activity relative to Cyclosporin A (Balb/c spleen cells) [%] | also measured
[Ethyl-Ile]^4-Ciclosporin | 0.1 | – | –
C/C=C/C[C@@H](C)[C@@H](O)C1C(=O)N[C@@H](CC)C(=O)N(C)CC(=O)N(C)[C@@H](CC(C)C)C(=O)N[C@@H](C(C)C)C(=O)N(C)[C@@H](C)C(=O)N[C@@H](C)C(=O)N[C@H](C)C(=O)N(C)[C@@H](CC(C)C)C(=O)N(C)[C@@H](CC(C)C)C(=O)N(C)[C@@H](C(C)C)C(=O)N1C (stereo partly shown) [[MeAla]^6-Ciclosporin] (cyclo(A[dA][NMeL][NMeL][NMeV][ξNMeBmt][Abu][Sar][NMeL]V[NMeA])) | −0.4 | 3.2 | –
C/C=C/C[C@@H](C)[C@@H](O)C1C(=O)N[C@@H](CC)C(=O)N(C)CC(=O)N(C)[C@@H](CC(C)C)C(=O)N[C@@H](C(C)C)C(=O)N(C)[C@@H](CC(C)C)C(=O)N[C@@H](C)C(=O)N[C@H](C)C(=O)N(C)[C@@H](CC(C)(C)O)C(=O)N(C)[C@@H](CC(C)C)C(=O)N(C)[C@@H](C(C)C)C(=O)N1C (stereo partly shown) [[γ-hydroxy-MeLeu]^9-Ciclosporin] | 0.15 | 2.9 | –
CC[C@@H]1NC(=O)C([C@H](O)[C@H](C)C/C=C/CO)N(C)C(=O)[C@H](C(C)C)N(C)C(=O)[C@H](CC(C)C)N(C)C(=O)[C@H](CC(C)C)N(C)C(=O)[C@@H](C)NC(=O)[C@H](C)NC(=O)[C@H](CC(C)C)N(C)C(=O)[C@H](C(C)C)NC(=O)[C@H](CC(C)C)N(C)C(=O)CN(C)C1=O (stereo partly shown) [[8′-hydroxy-MeBmt]^5-Ciclosporin] | 0.35 | 1.8 | –
IFN-α | – | – | log reduction of HCV RNA ([2]; 5 U/ml IFN-α alone, 9 days): 1.2 log
[Ethyl-Val]^4-Ciclosporin | 0 | – | –
C/C=C/C[C@@H](C)[C@@H](O)C1C(=O)N[C@@H](CC)C(=O)N(C)CC(=O)N(C)[C@@H](CC(C)C)C(=O)N(C)[C@@H](C(C)C)C(=O)N(C)[C@@H](CC(C)C)C(=O)N[C@@H](C)C(=O)N[C@H](C)C(=O)N(C)[C@@H](CC(C)C)C(=O)N(C)[C@@H](CC(C)C)C(=O)N(C)[C@@H](C(C)C)C(=O)N1C (stereo partly shown) [[MeVal]^5-Ciclosporin] | 0.4 | 5.3 | –
CC=CCC(C)C(O)C1C(=O)NC(CC)C(=O)N(C)CC(=O)N(C)C(C(C)C)C(=O)NC(C(C)C)C(=O)N(C)C(CC(C)C)C(=O)NC(C)C(=O)NC(C)C(=O)N(C)C(CC(C)C)C(=O)N(C)C(CC(C)C)C(=O)N(C)C(C(C)C)C(=O)N1C (stereo not shown) [[MeVal]^4-Ciclosporin] | 0.1 | – | –
COc1ccc2c(O[C@@H]3C[C@H]4C(=O)N[C@]5(C(=O)O)C[C@H]5/C=C\CCCCC[C@H](NC(=O)OC5CCCC5)C(=O)N4C3)cc(-c3csc(NC(C)C)n3)nc2c1 [BILN2061] | – | – | treatment time after which resistant colonies start to form [3]: 2 weeks
C/C=C/C[C@@H](C)[C@@H](O)[C@H]1C(=O)N[C@@H](CC)C(=O)N(C)CC(=O)N(C)[C@@H]([C@@H](C)CC)C(=O)N[C@@H](C(C)C)C(=O)N(C)[C@@H](CC(C)C)C(=O)N[C@@H](C)C(=O)N[C@H](C)C(=O)N(C)[C@@H](CC(C)C)C(=O)N(C)[C@@H](CC(C)C)C(=O)N(C)[C@@H](C(C)C)C(=O)N1C [NIM811, [Melle]^4-Ciclosporin] | −0.2 | – | log reduction of HCV RNA ([2]; 0.5 μM NIM811 alone, 9 days of treatment): 1.2 log; log reduction of HCV RNA ([2]; 1 μM NIM811 alone, 9 days of treatment): greater than 3 log
